Test results taken from PubChem BioAssay (NCI).
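Results reflect a 48-hour exposure of cells in 96-well plates to compound at five concentrations. GI50 is the concentration that inhibits growth by half. TGI marks complete inhibition of growth.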

Assays:
Assay in all cases: NCI tumour cell line growth inhibition, 48 h
[1] = tested on: HCT-15 colon
[2] = tested on: HOP-62 NSCLC
[3] = tested on: HT29 colon
[4] = tested on: M14 melanoma
[5] = tested on: MDA-MB-231 breast
[6] = tested on: MDA-N
[7] = tested on: NCI-H460 lung
[8] = tested on: PC-3 prostate
[9] = tested on: SR leukemia
[10] = tested on: SW-620 colon

| SMILES | TGI [1] [µM] | TGI [2] [µM] | TGI [3] [µM] | TGI [4] [µM] | TGI [5] [µM] | TGI [6] [µM] | TGI [7] [µM] | TGI [8] [µM] | TGI [9] [µM] | TGI [10] [µM] | GI50 [1] [µM] | GI50 [3] [µM] | GI50 [9] [µM] |
| --- | --- | --- | --- | --- | --- | --- | --- | --- | --- | --- | --- | --- | --- |
| O=C1C(Cl)=C(OCCCl)C(=O)c2c(O)ccc(O)c21 | 7.01 | 30.4 | 12.5 | 4.19 | 10.6 | 7.37 | 40.7 | 26 | 0.397 | 9.9 | – | – | – |
| NS(=O)(=O)c1ccc(/C=C/c2ccc(F)cc2)cc1 | 33.3 | 65.9 | > 100 | > 100 | 50.7 | > 100 | > 100 | > 100 | > 100 | > 100 | 9.97 | 29.4 | 10.5 |
| C=C[C@@H](C)[C@H](NS(=O)(=O)c1ccc(C)cc1)C(=O)OCC | > 100 | > 100 | 59.9 | > 100 | > 100 | 83.6 | > 100 | > 100 | > 100 | > 100 | – | – | – |
| CC1C(=O)N(c2ccccc2)NC12CCCc1ccccc12 (stereo not drawn) | > 100 | > 100 | > 100 | > 100 | > 100 | > 100 | > 100 | > 100 | > 100 | > 100 | – | – | – |
| Cc1ccc(OCC2OC(n3cnc4c(Cl)nc(N)nc43)CC2Oc2ccc(C)cc2)cc1 (stereo not drawn) | > 100 | > 52.5 | > 100 | > 100 | > 100 | > 100 | > 100 | > 58.5 | > 100 | > 100 | – | – | – |
| NCCCN(CCCN(C(=O)Nc1ccccc1)c1ccccc1)C(=O)Nc1ccccc1 | > 100 | 67.5 | > 100 | 44.8 | > 100 | > 100 | 94.8 | > 100 | > 100 | 52.3 | – | – | – |
| COc1cccc(CCN2CCN(CCCc3ccccc3)CC2)c1 | > 100 | > 100 | > 100 | 60.6 | > 100 | > 100 | > 100 | > 100 | > 100 | > 100 | – | – | – |
| Cc1csc(NC23CC4CC(CC(C4)C2)C3)[n+]1C(P(=O)([O-])O)P(=O)(O)O (stereo not drawn) | > 100 | > 100 | > 100 | > 100 | > 100 | > 100 | > 100 | > 100 | > 100 | > 100 | – | – | – |
| COC(=O)c1cc(=O)[nH]c(=O)[nH]1 | > 100 | > 100 | > 100 | > 100 | > 100 | > 100 | > 100 | > 100 | > 100 | > 100 | – | – | – |
| CCOC(=O)CCC(NC(=O)OCc1ccccc1)C(=O)NC(CCC(=O)OCC)C(=O)NC(CCC(=O)OCC)C(=O)NC(CCC(=O)OCC)C(=O)NC(CCC(=O)OCC)C(=O)NC(CCC(=O)OCC)C(=O)NC(CCC(=O)OCC)C(=O)OCC (stereo not drawn) | > 100 | > 100 | > 100 | > 100 | > 100 | > 100 | > 100 | > 100 | > 100 | > 100 | – | – | – |
| COP(=O)(OC)C(Cc1cn(C(C)=O)c2ccccc12)C(=O)O (stereo not drawn) | > 100 | > 100 | > 100 | > 100 | > 100 | > 100 | > 100 | > 100 | > 100 | > 100 | – | – | – |
| CN(C)c1ccc(/C(F)=C(F)/C(F)=C(F)/C(F)=C(\F)c2ccc(Br)cc2)cc1 | > 100 | > 100 | 98 | > 69.7 | > 100 | 7.54 | > 100 | > 52 | > 100 | > 100 | – | – | – |
| Cc1cc(-c2nc3cc(F)ccc3s2)ccc1NC(=O)[C@@H](N)CCCCN | 21 | 11 | 9.61 | 4.86 | 10.5 | 3.27 | 2.24 | 21.4 | 3.52 | 6.04 | – | – | – |
| CC(NC(=O)C(NC(=O)CNC(=O)OC(C)(C)C)C(C)C)C(=O)Oc1c(Cl)c(Cl)c(Cl)c(Cl)c1Cl (stereo not drawn) | 33.2 | 35.7 | 68.5 | 39.5 | 42 | > 100 | 39.3 | 32.1 | > 100 | 60 | – | – | – |
| COc1ccc2c3c1OC1C(=O)C=CC4(CC2)N(C)CCC314 (stereo not drawn) | > 100 | > 100 | > 100 | 49.6 | > 100 | > 100 | 71.1 | > 100 | 33.7 | > 100 | – | – | – |
| CC(=O)NCCC1CN(C(=O)/C=C/I)c2ccccc21 (stereo not drawn) | 9.66 | 27.7 | 12.9 | 8.5 | 5.15 | 9.26 | 16.9 | 21.1 | > 27.4 | 4.53 | – | – | – |
| CCCCCCCC/C=C\CCCCCCC/C=C1\C[C@](/C=C/C(=O)OC)(CO)OC1=O | 8.22 | 9.18 | 25.8 | 4.34 | 6.6 | 2.27 | 20.2 | 6.96 | > 23.5 | 3.78 | – | – | – |
| CSCCC(N)C(=O)NCCNc1ccc(NCCNC(=O)C(N)CCSC)c2c1C(=O)c1ccccc1C2=O (stereo not drawn) | 16.3 | 5.22 | 3.21 | 12 | 2.81 | 4.23 | 9.33 | 6.02 | 2.85 | 3.83 | – | – | – |
| COC(=O)C1(Cc2ccc3c(c2)CCC3)Cc2ccccc2C1O (stereo not drawn) | 50.7 | 46.3 | 31.6 | 34.9 | 67.4 | 13.5 | 38.1 | 29.2 | 75.9 | 43.5 | – | – | – |
| Nc1ccc(S(=O)(=O)c2ccc(NCN3C(=O)NC(=O)C(=O)C3=O)cc2)cc1 | > 100 | > 100 | > 100 | > 100 | > 100 | > 100 | > 100 | > 100 | > 100 | > 100 | – | – | – |
| C[N+](C)(C)c1ccc(C(N)C(=O)O)cc1 (stereo not drawn) | > 100 | > 100 | > 100 | > 100 | > 100 | > 100 | > 100 | > 100 | > 100 | > 100 | – | – | – |
| Cc1ccc([S@](=O)c2occc2C=O)cc1 | 9.84 | 35.2 | 27.2 | 20.7 | 24.2 | 15.1 | 33.8 | 10.4 | 5.08 | 3.63 | – | – | – |
| COC(OC)[C@@H]1OC[C@H](n2cnc3c(N)ncnc32)[C@H]1O | > 100 | > 100 | > 100 | > 100 | > 100 | > 100 | > 100 | > 100 | > 100 | > 100 | – | – | – |
| C=C(C(N)=O)c1ccc([N+](=O)[O-])o1 | 27.9 | 46.8 | 30.6 | 8.65 | 29.8 | 13.5 | 59 | 76 | 36.9 | 32.3 | – | – | – |
| CC1CCC/C1=C(/I)C(=O)c1ccccc1 (stereo not drawn) | > 100 | > 100 | > 100 | > 100 | > 100 | > 100 | > 100 | > 100 | 78.1 | > 100 | – | – | – |
| CCN(CC)N1C(=O)[N+](CC)(CC)N=C1[O-] | > 100 | > 100 | > 100 | > 100 | > 100 | > 100 | > 100 | > 100 | > 100 | > 100 | – | – | – |
| CCNC(=S)N=Nc1c(O)[nH]c2ccc([N+](=O)[O-])cc12 | > 100 | > 100 | > 100 | > 100 | > 100 | > 100 | > 100 | > 100 | > 100 | > 100 | – | – | – |
| CC1(C)N/C(=C\C=O)C(C)(C)N1O | > 100 | > 100 | > 100 | > 100 | > 100 | > 100 | > 100 | > 100 | > 100 | > 100 | – | – | – |
| CCCCC(=O)c1c(O)nc2sccn2c1=O | > 10 | > 10 | > 10 | > 10 | > 10 | > 10 | > 10 | > 10 | > 10 | > 10 | – | – | – |
| CO/N=C1\CC(NC(=O)CNC(=O)OC(C)(C)C)c2ccsc21 (stereo not drawn) | > 100 | > 100 | > 100 | > 100 | > 100 | > 100 | > 100 | > 100 | > 100 | > 100 | – | – | – |
